Key:
[1] = test system: Aphis Craccivora (cowpea aphid); test: Example B10: activity against Aphis craccivora, pea seedling roots in test solution (systemic/feeding); format: in vivo; details: 144 h, roots of infested pea seedlings in test solution, 6 days
Source text: (§1) Activity Against Aphis Craccivora (Cowpea Aphid)
(Mixed Population, Systemic/Feeding)

[2] = test system: Aphis Craccivora (cowpea aphid); test: Example B9: activity against Aphis craccivora, sprayed pea seedlings (contact/feeding); format: in vivo; details: 144 h, infested pea seedlings sprayed, 6 days
Source text: as §1
(Mixed Population, Contact/Feeding)
6 days after treatment, samples are checked for mortality.

[3] = test system: Myzus persicae (green peach aphid); test: Example B13: drench activity against Myzus persicae, pea seedlings in field soil; details: 168 h, read-out: drench activity (mortality)
[4] = test system: Myzus persicae (green peach aphid); test: Example B1: activity against Myzus persicae, sprayed sunflower leaf discs (feeding/residual contact, preventive); details: foliar, 144 h, read-out: activity (mortality)
[5] = test system: Aphis Craccivora (cowpea aphid); test: Example B11: translaminar activity against Aphis craccivora on French bean leaves; format: in vivo; details: 120 h, upper leaf side painted, aphids on lower side, 5 days
Description: Translaminar Activity Against Aphis Craccivora (Cowpea Aphid)
French bean leaves (Phaseolus vulgaris) are infested with about 20 mixed age individuals on the lower leaf side using clip cages. 1 day after the infestation, the upper side of the leaves is treated with the test solution by painting. 5 days later, samples are checked for mortality.

[6] = test system: Myzus persicae (green peach aphid); test: Example B17: activity against Myzus persicae on sprayed pepper plants (feeding/residual contact); format: in vivo; details: 144 h, infested pepper plants sprayed, 6 days
[7] = test system: Nilaparvata lugens (brown rice planthopper); test: Example B8: activity against Nilaparvata lugens, sprayed rice seedlings (larvicide, feeding/contact); details: in Oryza sativa, read-out: activity (mortality, growth regulation, effects on F1 generation)
[8] = test system: Myzus persicae (green peach aphid); test: Example B2: activity against Myzus persicae, pea seedling roots in test solution (systemic/feeding, curative); details: 144 h, read-out: activity (mortality)
[9] = test system: Bemisia tabaci (tobacco white fly); test: Example B7: activity against Bemisia tabaci, sprayed bean plants (larvicide, contact/feeding); format: in vivo; details: 504 h, bean plants with N-2 nymphs sprayed, three weeks, read-out: activity (efficacy, number of emerged adults)
Description: Activity Against Bemisia tabaci (Tobacco White Fly)
(Larvicide, Contact/Feeding)
Bean plants are infested with 20-30 adults that were removed after a 4 day egg-laying period. After another 7 days, bean plants with hatched nymphs (N-2) are treated (2 replicates) with the test solutions in a spray chamber. Three weeks later, samples are checked for number of emerged adults. Efficacy was calculated by comparing number of emerged adults in treated and non treated samples.

[10] = test system: Tetranychus urticae (two-spotted spider mite); test: Example B4: activity against Tetranychus urticae, sprayed bean leaf discs (feeding/residual contact, preventive); details: foliar, 192 h, read-out: activity (egg, larval and adult mortality)
[11] = test system: Frankliniella occidentalis (western flower thrips); test: Example B6: activity against Frankliniella occidentalis, bean leaf discs or bean plants; format: in vivo; details: foliar, 6 days (leaf discs) or 14 days (plants) after infestation, read-out: activity (reduction of treated population)
Description: Activity Against Frankliniella occidentalis (Western Flower Thrips)
Bean leaf discs on agar in petri dishes or bean plants in a spray chamber are treated with diluted test solutions. After drying leaf discs are cut and placed in plastic cups on the surface of an agar layer and infested with mixed population. 6 days (leaf discs) or 14 days (plants) after the infestation, samples are checked for reduction of treated population and compared to the non treated population.

SMILES	mortality at 400 ppm [1] [%]	mortality at 400 ppm [2] [%]	mortality at 25 ppm [3] [%]	mortality at 400 ppm [4] [%]	mortality at 400 ppm [5] [%]	mortality at 200 ppm [6] [%]	mortality at 400 ppm [7] [%]	mortality at 400 ppm [8] [%]	pest or weed control at 200 ppm [9] [%]	mortality at 400 ppm [10] [%]	pest or weed control at 400 ppm [11] [%]
CCOC(=O)OC1=C(c2cc(C)ccc2C)C(=O)N(OC)C12CCN(OC)CC2 [P1.1]	> 80	> 80	> 80	> 80	> 80	≥ 80	> 80	> 80	–	–	–
CCOC(=O)OC1=C(c2cc(C)ccc2C)C(=O)N(OCCOC)C12CCN(OC)CC2 [P1.3]	> 80	> 80	> 80	> 80	> 80	≥ 80	> 80	> 80	–	–	–
CCOC(=O)OC1=C(c2c(C)cc(C)cc2C)C(=O)N(OC2CCCCO2)C12CCN(OC)CC2 (stereo not drawn) [P1.10]	> 80	–	> 80	> 80	> 80	≥ 80	> 80	> 80	> 80	> 80	> 80
CCOC(=O)OC1=C(c2c(C)cc(C)cc2C)C(=O)N(OC(C)C)C12CCN(OC)CC2 [P1.14]	–	–	–	–	> 80	≥ 80	–	> 80	–	–	> 80
CCOC(=O)OC1=C(c2c(C)cc(C)cc2C)C(=O)N(OCC2CC2)C12CCN(OC)CC2 [P1.18]	–	–	> 80	> 80	> 80	≥ 80	> 80	> 80	> 80	> 80	> 80
CCOC(=O)OC1=C(c2c(C)cc(C)cc2C)C(=O)N(OCC2CCCCO2)C12CCN(OC)CC2 (stereo not drawn) [P1.26]	> 80	> 80	> 80	> 80	> 80	≥ 80	> 80	> 80	–	> 80	–
CCOC(=O)OC1=C(c2c(C)cc(C)cc2C)C(=O)N(OCOCCOC)C12CCN(OC)CC2 [P1.27]	> 80	> 80	> 80	> 80	> 80	≥ 80	> 80	> 80	–	> 80	> 80
CCOC(=O)OC1=C(c2c(C)cc(C)cc2C)C(=O)N(OC2CCC2)C12CCN(OC)CC2 [P1.45]	–	–	–	> 80	> 80	≥ 80	> 80	> 80	–	> 80	> 80
CCOC(=O)OC1=C(c2ccc(C)cc2C)C(=O)N(OC)C12CCN(OC)CC2 [P1.48]	–	> 80	> 80	> 80	> 80	≥ 80	> 80	> 80	> 80	> 80	–
CCOC(=O)OC1=C(c2c(C)ccc(C)c2Cl)C(=O)N(OCCOC)C12CCN(OC)CC2 [P1.60]	> 80	> 80	> 80	> 80	> 80	–	> 80	> 80	–	> 80	> 80
CCOC(=O)OC1=C(c2c(C)cc(C)cc2C)C(=O)N(OCC2CCOCC2)C12CCN(OC)CC2 [P1.82]	> 80	> 80	> 80	> 80	> 80	≥ 80	> 80	> 80	> 80	> 80	–
